Biological target: CBP (Homo sapiens (Human), UniProt Q92793)
Assay: In vitro CBP inhibition (AlphaScreen, biotinylated H4-tetraacetyl peptide)
Format: binding
Details: not given
Summary of the method: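 His-tagged CBP expressed in E. coli (50 nM final) incubated with biotinylated H4K5/8/12/16(Ac) peptide (20 nM final) in 50 mM HEPES pH 7.3, 10 mM NaCl, 0.25 mM TCEP, 0.1% BSA, 0.005% Brij-35, 0.4% DMSO, 20 min at room temp.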

Sequence of CBP (Q92793 1081-1197): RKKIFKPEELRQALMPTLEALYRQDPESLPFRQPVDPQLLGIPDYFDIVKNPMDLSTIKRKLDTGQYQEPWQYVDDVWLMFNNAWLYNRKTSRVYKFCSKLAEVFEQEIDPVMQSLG

Row | Structure (SMILES) | IC50 [nM]
1 | Cn1cc(-c2cnn(Cc3ccccc3)c2)ccc1=O [Example 1, 5-(1-benzyl-1H-pyrazol-4-yl)-1-methylpyridin-2(1H)-one] | 500 to 5000

Same assay, conditions: AlphaScreen, Table 29; read-out: CBP IC50

Row | IC50 [nM] | Structure (SMILES)
2 | < 500 | COc1ccc(-c2cc(=O)n(C)cc2-c2cnn(-c3ccccc3C#N)c2)cn1 [Example 238, 2-(4-(6-methoxy-1′-methyl-6′-oxo-1′,6′-dihydro-[3,4′-bipyridin]-3′-yl)-1H-pyrazol-1-yl)benzonitrile]
3 | < 500 | COc1ccc(C(=O)O)c(-n2cc(-c3cn(C)c(=O)cc3-c3ccnc(OC)c3)cn2)c1 [Example 272, 4-Methoxy-2-[4-(2′-methoxy-1-methyl-6-oxo-1,6-dihydro-[4,4′]bipyridinyl-3-yl)-pyrazol-1-yl]-benzoic acid]
4 | < 500 | CC(c1ccccc1)n1cc(-c2cn(C)c(=O)cc2OC2CCCC2)cn1 (stereo not drawn) [Example 51, 4-(cyclopentyloxy)-1-methyl-5-(1-(1-phenylethyl)-1H-pyrazol-4-yl) pyridin-2(1H)-one]
5 | < 500 | CCOc1cc(=O)n(C)cc1-c1cnn(Cc2ccccc2C(=O)OC)c1 [Example 70, methyl 2-((4-(4-ethoxy-1-methyl-6-oxo-1,6-dihydropyridin-3-yl)-1H-pyrazol-1-yl)methyl)benzoate]
6 | < 500 | Cn1cc(-c2cnn(-c3cccc(Cl)c3C#N)c2)c(-c2cnc(NC3CCCC3)nc2)cc1=O [Example 329, 2-chloro-6-(4-(4-(2-(cyclopentylamino)pyrimidin-5-yl)-1-methyl-6-oxo-1,6-dihydropyridin-3-yl)-1H-pyrazol-1-yl)benzonitrile]
7 | < 500 | CCOc1cc(=O)n(C)cc1-c1cn[nH]c1 [Example 69, 4-ethoxy-1-methyl-5-(1H-pyrazol-4-yl)pyridin-2(1H)-one]
8 | < 500 | CN(C)c1ncc(-c2cc(=O)n(C)cc2-c2cnn(-c3cccc(Cl)c3C#N)c2)cn1 [Example 328, 2-chloro-6-(4-(4-(2-(dimethylamino)pyrimidin-5-yl)-1-methyl-6-oxo-1,6-dihydropyridin-3-yl)-1H-pyrazol-1-yl)benzonitrile]
9 | < 500 | Cn1cc(-c2cnn(Cc3ccccc3)c2)c(-c2ccc(C(N)=O)cc2)cc1=O [Example 151, 4-(5-(1-benzyl-1H-pyrazol-4-yl)-1-methyl-2-oxo-1,2-dihydro-pyridin-4-yl)benzamide]
10 | < 500 | Cn1cc(-c2cnn(Cc3ccccc3)c2)c(-c2cn[nH]c2)cc1=O [Example 152, 5-(1-benzyl-1H-pyrazol-4-yl)-1-methyl-4-(1H-pyrazol-4-yl) pyridin-2(1H)-one]
11 | < 500 | COc1ccc(-c2cc(=O)n(C)cc2-c2cnn(-c3cccc(Cl)c3C#N)c2)cn1 [Example 277, 2-Chloro-6-[4-(6-methoxy-1′-methyl-6′-oxo-1′,6′-dihydro-[3,4′]bipyridinyl-3′-yl)-pyrazol-1-yl]-benzonitrile]
12 | < 500 | CCOc1ccc(-c2cc(=O)n(C)cc2-c2cnn(-c3cccc(C4CC4)c3C#N)c2)cn1 [Example 384, 2-cyclopropyl-6-(4-(6-ethoxy-1′-methyl-6′-oxo-1′,6′-dihydro-[3,4′-bipyridin]-3′-yl)-1H-pyrazol-1-yl)benzonitrile]
13 | < 500 | COc1ccc(-c2cc(=O)n(C)cc2-c2cnn(-c3cc(C#N)ccc3OC)c2)cn1 [Example 306, 4-Methoxy-3-[4-(6-methoxy-1′-methyl-6′-oxo-1′,6′-dihydro-[3,4′]bipyridinyl-3′-yl)-pyrazol-1-yl]-benzonitrile]
14 | < 500 | Cn1cc(-c2cnn(-c3ccccc3C#N)c2)c(-c2ccc(Cl)cc2)cc1=O [Example 214, 2-{4-[4-(4-Chloro-phenyl)-1-methyl-6-oxo-1,6-dihydro-pyridin-3-yl]-pyrazol-1-yl}-benzonitrile]

Same assay, conditions: CBP versus BRD4

Row | IC50 for CBP compared with BRD4 (selectivity) | Structure (SMILES)
15 | lower IC50 for CBP than for BRD4 | Cn1cc(-c2cnn(Cc3ccccc3)c2)c(-n2cccc2)cc1=O [5-(1-benzyl-1H-pyrazol-4-yl)-1-methyl-4-(1H-pyrrol-1-yl)pyridin-2(1H)-one]

From patent US10617680B2 (CELGENE QUANTICEL RESEARCH, INC., priority 2017, dated 2020)
